Results taken from patent US10633386B2, “BET protein degraders” (THE REGENTS OF THE UNIVERSITY OF MICHIGAN, priority 2016, dated 2020).
Like-named read-outs stand apart in the source and are kept apart here. Blank lines part the entries; values can stand above or below the compound they belong to.

Columns and labels:
Type in all cases: cell-based
CALU-1 = test: Cell growth inhibition (CellTiter-Glo), NSCLC line CALU-1; settings: CALU-1 non-small cell lung cancer cell line, 4 days
Description: (§1) Cell growth inhibitory activity of representative BET bromodomain degraders in representative non-small cell lung cancer cell lines was determined using the CellTiter-Glo® Luminescent Cell Viability Assay. Cells were seeded in 384-well white opaque cell culture plates at a density of 2,000 cells/well with serially diluted compounds and incubated at 37° C. in an atmosphere of 95% air and 5% CO2 for 4 days. Cell viability was determined using the CellTiter-Glo® Luminescent Cell Viability Assay Kit (Promega, Madison, Wis.) according to the manufacture's instruction. Briefly, a volume of CellTiter-Glo® Reagent equal to the volume of cell culture medium was added to each well, and then the plates were incubated at room temperature for 10-20 minutes. The luminescent signal was measured using a Tecan Infinite M1000 multimode microplate reader (Tecan, Morrisville, N.C.). The half maximal inhibitory concentration (IC50) was calculated using the GraphPad Prism 5 software (GraphPad Software, La Jolla, Calif.). Cpd. A is a BET bromodomain inhibitor, see U.S. Appl.

H520 = test: Cell growth inhibition (CellTiter-Glo), NSCLC line H520; settings: H520 non-small cell lung cancer cell line, 4 days
Description: as §1

CALU6 = test: Cell growth inhibition (CellTiter-Glo), NSCLC line CALU6; settings: CALU6 non-small cell lung cancer cell line, 4 days
Description: as §1

H2009 = test: Cell growth inhibition (CellTiter-Glo), NSCLC line H2009; settings: H2009 non-small cell lung cancer cell line, 4 days
Description: as §1

H1792 = test: Cell growth inhibition (CellTiter-Glo), NSCLC line H1792; settings: H1792 non-small cell lung cancer cell line, 4 days
Description: as §1

H1299 = test: Cell growth inhibition (CellTiter-Glo), NSCLC line H1299; settings: H1299 non-small cell lung cancer cell line, 4 days
Description: as §1

H2030 = test: Cell growth inhibition (CellTiter-Glo), NSCLC line H2030; settings: H2030 non-small cell lung cancer cell line, 4 days
Description: as §1

H1437 = test: Cell growth inhibition (CellTiter-Glo), NSCLC line H1437; settings: H1437 non-small cell lung cancer cell line, 4 days
Description: as §1

H460 = test: Cell growth inhibition (CellTiter-Glo), NSCLC line H460; settings: H460 non-small cell lung cancer cell line, 4 days
Description: as §1

HBL-100 = test: Cell growth inhibition (CellTiter-Glo), breast cancer line HBL-100; settings: HBL-100 breast cancer cell line, 4 days
Description: (§2) Cell growth inhibitory activity of representative BET bromodomain degraders in representative breast cancer cell lines was determined using the CellTiter-Glo® Luminescent Cell Viability Assay. SUM-52 and SUM-159 cell lines were established at the University of Michigan Comprehensive Cancer Center. All the other breast cancer cell lines were obtained from the ATCC (Manassas, Va.). Cells were seeded in 384-well cell culture plates at a density of 1,000-2,500 cells/well with serially diluted compounds and incubated at 37° C. in an atmosphere of 95% air and 5% CO2 for 4 days. Cell viability was determined using the CellTiter-Glo® Luminescent Cell Viability Assay Kit (Promega, Madison, Wis.) according to the manufacture's instruction. Briefly, a volume of CellTiter-Glo® Reagent equal to the volume of cell culture medium was added to each well, and then the plates were incubated at room temperature for 20-60 minutes. The luminescent signal was measured using a Tecan Infinite M1000 multimode microplate reader (Tecan, Morrisville, N.C.). The half maximal inhibitory concentration (IC50) was calculated using the GraphPad Prism 5 software (GraphPad Software, La Jolla, Calif.). “Thd” is thalidomide.

SUM-52 = test: Cell growth inhibition (CellTiter-Glo), breast cancer line SUM-52; settings: SUM-52 breast cancer cell line, 4 days
Description: as §2

HCC1937 = test: Cell growth inhibition (CellTiter-Glo), breast cancer line HCC1937; settings: 4 days
Description: as §2

BT-20 = test: Cell growth inhibition (CellTiter-Glo), breast cancer line BT-20; settings: BT-20 breast cancer cell line, 4 days
Description: as §2

HCC1395 = test: Cell growth inhibition (CellTiter-Glo), breast cancer line HCC1395; settings: 4 days
Description: as §2

Lovo = test: Cell growth inhibition (CellTiter-Glo), colon cancer line Lovo
Description: as §1, with “Appl. No. 62/121,637, having the following structure:” for “Appl.”
(§3) Cell growth inhibitory activity of representative BET bromodomain degraders in representative colon cancer cell lines, see Table 7, was determined as described in Example 17.

SW48 = test: Cell growth inhibition (CellTiter-Glo), colon cancer line SW48
Description: as §1, with “Appl. No. 62/121,637, having the following structure:” for “Appl.”
as §3

HT-29 = test: Cell growth inhibition (CellTiter-Glo), colon cancer line HT-29; settings: HT-29 colon cancer cell line
Description: as §1, with “Appl. No. 62/121,637, having the following structure:” for “Appl.”
as §3

HCT116 = test: Cell growth inhibition (CellTiter-Glo), colon cancer line HCT116
Description: as §1, with “Appl. No. 62/121,637, having the following structure:” for “Appl.”
as §3

SW837 = test: Cell growth inhibition (CellTiter-Glo), colon cancer line SW837
Description: as §1, with “Appl. No. 62/121,637, having the following structure:” for “Appl.”
as §3

SW403 = test: Cell growth inhibition (CellTiter-Glo), colon cancer line SW403
Description: as §1, with “Appl. No. 62/121,637, having the following structure:” for “Appl.”
as §3

H508 = test: Cell growth inhibition (CellTiter-Glo), colon cancer line H508
Description: as §1, with “Appl. No. 62/121,637, having the following structure:” for “Appl.”
as §3

T84 = test: Cell growth inhibition (CellTiter-Glo), colon cancer line T84
Description: as §1, with “Appl. No. 62/121,637, having the following structure:” for “Appl.”
as §3

LS513 = test: Cell growth inhibition (CellTiter-Glo), colon cancer line LS513
Description: as §1, with “Appl. No. 62/121,637, having the following structure:” for “Appl.”
as §3

Structure (SMILES): CCn1nc(C2CC2)cc1Nc1nc(COC)nc2[nH]c3cc(-c4c(C)noc4C)c(OC)cc3c12 [Cpd. A, reference compound]
- IC50 (CALU-1; Homo sapiens, 96 h): 2520 nM
- IC50 (H520; Homo sapiens, NCI-H520, 96 h): 280 nM
- IC50 (CALU6; Homo sapiens, Calu-6, 96 h): 630 nM
- IC50 (H2009; Homo sapiens, NCI-H2009, 96 h): 170 nM
- IC50 (H1792; Homo sapiens, NCI-H1792, 96 h): 130 nM
- IC50 (H1299; Homo sapiens, NCI-H1299, 96 h): 60 nM
- IC50 (H2030; Homo sapiens, NCI-H2030, 96 h): 110 nM
- IC50 (H1437; Homo sapiens, NCI-H1437, 96 h): 140 nM
- IC50 (H460; Homo sapiens, NCI-H460, 96 h): 1790 nM
- IC50 (HBL-100; Homo sapiens, 96 h): 100 nM
- IC50 (SUM-52; SUM52, 96 h): 390 nM
- IC50 (HCC1937; Homo sapiens, 96 h): > 5000 nM
- IC50 (BT-20; Homo sapiens, 96 h): 2410 nM
- IC50 (HCC1395; Homo sapiens, 96 h): 1050 nM
- IC50 (Lovo; Homo sapiens): 44 ± 17 nM
- IC50 (SW48; Homo sapiens): 45.7 nM
- IC50 (HT-29; Homo sapiens): 69 ± 1 nM
- IC50 (HCT116; Homo sapiens, HCT-116): 1160 ± 179 nM
- IC50 (SW837; Homo sapiens): 84 ± 20 nM
- IC50 (SW403; Homo sapiens, SW-403): 102 ± 23 nM
- IC50 (H508; Homo sapiens, NCI-H508): 167 ± 90 nM
- IC50 (T84; Homo sapiens): 413 ± 100 nM
- IC50 (LS513; Homo sapiens, LS-513): 915 ± 670 nM

- IC50 (CALU-1): 3100 nM
- IC50 (H520): 4200 nM
- IC50 (CALU6): > 5000 nM
- IC50 (H2009): > 5000 nM
- IC50 (H1792): > 5000 nM
- IC50 (H1299): > 5000 nM
- IC50 (H2030): > 5000 nM
- IC50 (H1437): > 5000 nM
- IC50 (H460): > 5000 nM
- IC50 (HBL-100): > 5000 nM
- IC50 (SUM-52): > 5000 nM
- IC50 (HCC1937): > 5000 nM
- IC50 (BT-20): > 5000 nM
- IC50 (HCC1395): > 5000 nM
- IC50 (Lovo): > 5000 nM
- IC50 (SW48): 2780 nM
- IC50 (HT-29): > 5000 nM
- IC50 (HCT116): > 5000 nM
- IC50 (SW837): > 5000 nM
- IC50 (SW403): > 5000 nM
- IC50 (H508): > 5000 nM
- IC50 (T84): > 5000 nM
- IC50 (LS513): > 5000 nM
Structure (SMILES): Cc1sc2c(c1C)C(c1ccc(Cl)cc1)=N[C@@H](CC(=O)NCCCCNC(=O)COc1cccc3c1C(=O)N(C1CCC(=O)NC1=O)C3=O)c1nnc(C)n1-2 (stereo partly drawn) [dBET1, reference compound]

Structure (SMILES): CCn1nc(C2CC2)cc1Nc1nc(C(=O)NCCCOCCOCCOCCCNc2cccc3c2C(=O)N(C2CCC(=O)NC2=O)C3=O)nc2[nH]c3cc(-c4c(C)noc4C)c(OC)cc3c12 (stereo not drawn) [Cpd. No. 4]
- IC50 (CALU-1; Homo sapiens, 96 h): 2 nM
- IC50 (H520; Homo sapiens, NCI-H520, 96 h): 3 nM
- IC50 (CALU6; Homo sapiens, Calu-6, 96 h): 9 nM
- IC50 (H2009; Homo sapiens, NCI-H2009, 96 h): 16 nM
- IC50 (H1792; Homo sapiens, NCI-H1792, 96 h): 48 nM
- IC50 (H1299; Homo sapiens, NCI-H1299, 96 h): 69 nM
- IC50 (H2030; Homo sapiens, NCI-H2030, 96 h): 137 nM
- IC50 (H1437; Homo sapiens, NCI-H1437, 96 h): 329 nM
- IC50 (H460; Homo sapiens, NCI-H460, 96 h): 505 nM
- IC50 (HBL-100; Homo sapiens, 96 h): 4 nM
- IC50 (SUM-52; SUM52, 96 h): 8 nM
- IC50 (HCC1937; Homo sapiens, 96 h): 8 nM
- IC50 (BT-20; Homo sapiens, 96 h): 25 nM
- IC50 (HCC1395; Homo sapiens, 96 h): 277 nM
- IC50 (Lovo; Homo sapiens): 13 ± 14 nM
- IC50 (SW48; Homo sapiens): 6 nM
- IC50 (HT-29; Homo sapiens): 32 ± 20 nM
- IC50 (HCT116; Homo sapiens, HCT-116): 130 ± 30 nM
- IC50 (SW837; Homo sapiens): 76 ± 30 nM
- IC50 (SW403; Homo sapiens, SW-403): 42 ± 10 nM
- IC50 (H508; Homo sapiens, NCI-H508): 54 ± 30 nM
- IC50 (T84; Homo sapiens): 110 ± 30 nM
- IC50 (LS513; Homo sapiens, LS-513): 70 ± 20 nM

- IC50 (CALU-1; Homo sapiens, 96 h): 9 nM
- IC50 (H520; Homo sapiens, NCI-H520, 96 h): 11 nM
- IC50 (CALU6; Homo sapiens, Calu-6, 96 h): 33 nM
- IC50 (H2009; Homo sapiens, NCI-H2009, 96 h): 34 nM
- IC50 (H1792; Homo sapiens, NCI-H1792, 96 h): 151 nM
- IC50 (H1299; Homo sapiens, NCI-H1299, 96 h): 228 nM
- IC50 (H2030; Homo sapiens, NCI-H2030, 96 h): 269 nM
- IC50 (H1437; Homo sapiens, NCI-H1437, 96 h): 818 nM
- IC50 (H460; Homo sapiens, NCI-H460, 96 h): 51000 nM
- IC50 (Lovo; Homo sapiens): 46 ± 49 nM
- IC50 (SW48; Homo sapiens): 8 nM
- IC50 (HT-29; Homo sapiens): 48 ± 2 nM
- IC50 (HCT116; Homo sapiens, HCT-116): 585 ± 70 nM
- IC50 (SW837; Homo sapiens): 230 ± 67 nM
- IC50 (SW403; Homo sapiens, SW-403): 219 ± 190 nM
- IC50 (H508; Homo sapiens, NCI-H508): 410 ± 150 nM
- IC50 (T84; Homo sapiens): 690 ± 300 nM
- IC50 (LS513; Homo sapiens, LS-513): 185 ± 60 nM
Structure (SMILES): CCn1nc(C2CC2)cc1Nc1nc(C(=O)NCCCCNc2cccc3c2C(=O)N(C2CCC(=O)NC2=O)C3=O)nc2[nH]c3cc(-c4c(C)noc4C)c(OC)cc3c12 (stereo not drawn) [Cpd. No. 9]
